Literature values, collected in patent US20090054381A1, “METHODS FOR TREATING RESPIRATORY DISORDERS” (NitroMed, Inc., priority 2005, published 2009).
Where a name gives a salt, the structure may show the parent alone.

## O=[N+]([O-])O[C@H]1CO[C@H]2[C@@H]1OC[C@H]2O[N+](=O)[O-] [Diluted isosorbide dinitrate, 1,4,3,6-dianhydro-D-glucitol-2,5-dinitrate]
Organic solvents such as ethanol, ether and chloroform
  solubility in organic solvents: freely soluble
  solubility in water: sparingly soluble

## NNc1nncc2ccccc12 [Hydralazine hydrochloride, hydralazine hydrochloride]
alcohol
  solubility in alcohol: slightly soluble
ether
  solubility in ether: very slightly soluble
  solubility in water: soluble
